Reference: ChEMBL document CHEMBL4376828, “Small-Molecule Inhibitors of Necroptosis: Current Status and Perspectives” (J Med Chem, 2020)

What was measured:
HT-29 = assay: Anti-neprotic activity in human HT-29 cells assessed as reduction in TSZ-induced necroptosis incubated for 24 hrs by cell titer glo-based luminescence assay; format: functional; conditions: HT-29, 24 h
[1] = target: T1, Mixed lineage kinase domain-like protein (Homo sapiens) (UniProt Q8NB16)
T1 sequence (whole entry): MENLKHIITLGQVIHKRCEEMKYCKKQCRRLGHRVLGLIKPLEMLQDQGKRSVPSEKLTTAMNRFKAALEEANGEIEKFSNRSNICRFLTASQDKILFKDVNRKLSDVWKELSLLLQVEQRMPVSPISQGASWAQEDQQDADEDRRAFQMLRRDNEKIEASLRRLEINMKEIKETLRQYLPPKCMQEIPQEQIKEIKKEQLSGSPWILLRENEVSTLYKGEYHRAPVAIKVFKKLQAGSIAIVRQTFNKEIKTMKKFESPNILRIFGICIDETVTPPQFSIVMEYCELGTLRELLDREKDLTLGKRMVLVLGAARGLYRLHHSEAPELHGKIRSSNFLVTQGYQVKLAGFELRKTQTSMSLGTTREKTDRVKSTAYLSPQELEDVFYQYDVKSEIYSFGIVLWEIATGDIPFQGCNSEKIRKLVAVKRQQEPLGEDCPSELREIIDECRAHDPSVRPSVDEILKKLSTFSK

[2] = target: T2, Receptor-interacting serine/threonine-protein kinase 1 (Homo sapiens) (UniProt Q13546)
T2 sequence (whole entry): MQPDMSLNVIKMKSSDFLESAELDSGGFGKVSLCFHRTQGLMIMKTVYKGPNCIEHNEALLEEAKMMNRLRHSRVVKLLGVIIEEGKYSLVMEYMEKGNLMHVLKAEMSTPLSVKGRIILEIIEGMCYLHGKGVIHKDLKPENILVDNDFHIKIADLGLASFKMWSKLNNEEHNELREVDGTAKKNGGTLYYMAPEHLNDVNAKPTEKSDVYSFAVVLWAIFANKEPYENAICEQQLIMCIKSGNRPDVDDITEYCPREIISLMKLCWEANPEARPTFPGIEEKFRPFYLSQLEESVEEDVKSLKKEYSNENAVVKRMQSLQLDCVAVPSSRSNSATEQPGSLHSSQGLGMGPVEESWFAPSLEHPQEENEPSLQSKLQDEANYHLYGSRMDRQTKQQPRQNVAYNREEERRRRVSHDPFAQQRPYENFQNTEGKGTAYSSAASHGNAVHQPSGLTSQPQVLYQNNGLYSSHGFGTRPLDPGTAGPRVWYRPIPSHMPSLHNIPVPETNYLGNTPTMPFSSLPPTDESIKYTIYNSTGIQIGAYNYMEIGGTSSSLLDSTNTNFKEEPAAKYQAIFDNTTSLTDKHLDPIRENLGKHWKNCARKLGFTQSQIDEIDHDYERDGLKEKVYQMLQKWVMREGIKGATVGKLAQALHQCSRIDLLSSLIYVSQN

Jurkat = assay: Anti-neprotic activity in human Jurkat cells FADD defient assessed as reduction in TNFalpha-induced necroptosis preincubated for 30 mins followed by addition of TNFalpha-stimulation and further incubated for over night by Cell Titer Glo assay; format: functional, cell-based
[3] = target: T3, Receptor-interacting serine/threonine-protein kinase 1 (Homo sapiens, UniProt Q13546); assay: Inhibition of human RIPK1 by ADP-Glo assay
T3 sequence (Q13546 whole entry): T2 sequence (whole entry)

[4] = target: T3, Receptor-interacting serine/threonine-protein kinase 1; assay: Inhibition of GSK657 binding to human RIPK1 (1 to 328) by fluorescence Polarization assay
[5] = target: T4, Indoleamine 2,3-dioxygenase 1 (Homo sapiens, UniProt P14902); assay: Inhibition of IDO (unknown origin)
[6] = target: T4, Indoleamine 2,3-dioxygenase 1; assay: Inhibition of recombinant human IDO using L-Trp as substrate incubated for 60 mins
Mus musculus [7] = assay: Antiinflammatory activity in TNF-induced mouse model of SIRS assessed as reduction in TNF-induced body temperature at 5 mg/kg, po and measured after 2 to 4 hrs by infrared ear Thermometric method relative to control; format: functional; parameters: scale not given: the % may be the effect or the level left
[8] = target: T5, Receptor-interacting serine/threonine-protein kinase 1 (Mus musculus, UniProt Q60855); assay: Inhibition of mouse RIPK1; conditions: read-out: Ki(app)
T5 sequence (Q60855 whole entry): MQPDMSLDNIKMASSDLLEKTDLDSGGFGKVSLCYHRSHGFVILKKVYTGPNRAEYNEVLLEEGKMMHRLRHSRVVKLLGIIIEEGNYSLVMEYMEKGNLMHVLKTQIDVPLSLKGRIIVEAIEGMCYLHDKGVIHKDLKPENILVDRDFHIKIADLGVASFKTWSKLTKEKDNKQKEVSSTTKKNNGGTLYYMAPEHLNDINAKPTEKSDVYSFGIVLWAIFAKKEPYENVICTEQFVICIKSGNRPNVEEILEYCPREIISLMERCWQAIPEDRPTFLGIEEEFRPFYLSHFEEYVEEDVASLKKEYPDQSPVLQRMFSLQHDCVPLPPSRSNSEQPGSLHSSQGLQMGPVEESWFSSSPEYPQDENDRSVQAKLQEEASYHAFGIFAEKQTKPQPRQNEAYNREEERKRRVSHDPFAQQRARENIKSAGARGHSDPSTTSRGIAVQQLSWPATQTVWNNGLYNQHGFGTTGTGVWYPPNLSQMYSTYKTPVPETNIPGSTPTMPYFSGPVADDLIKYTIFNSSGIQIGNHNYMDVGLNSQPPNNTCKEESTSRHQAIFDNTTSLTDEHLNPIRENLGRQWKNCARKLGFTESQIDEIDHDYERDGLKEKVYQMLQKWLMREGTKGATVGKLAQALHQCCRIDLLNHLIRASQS

[9] = target: T3, Receptor-interacting serine/threonine-protein kinase 1; assay: Inhibition of RIPK1 (unknown origin)
L929 = assay: Anti-neprotic activity in mouse L929 cells assessed as reduction in TNF-induced necroptosis and measured every 1 hr by SYTOX Green dye based fluorescence assay; format: functional, cell-based; conditions: L929, 1 h
Mus musculus [10] = assay: Antiinflammatory Activity in C57BL/6 mouse TNFalpha-induced mouse model of SIRS assessed as reduction in TNF-induced body temperature at 0.226 mg/kg, iv pretreated for 15 mins followed by TNFalpha-stimulation and measured up to 4 days by thermometric method relative to control; format: functional; parameters: scale not given: the % may be the effect or the level left
[11] = target: T6, Receptor-interacting serine/threonine-protein kinase 3 (Homo sapiens, UniProt Q9Y572); assay: Inhibition of recombinant RIPK3 (unknown origin) using MBP as substrate preincubated for 15 mins followed by addition of MBP and measured after 120 min ADP-Glo kinase assay
Mus musculus [12] = assay: Antiinflammatory Activity in C57BL/6 mouse TNFalpha-induced mouse model of SIRS at 30 mg/kg, ip pretreated for 15 mins followed by TNFalpha-stimulation and measured after 72 hrs relative to control; format: functional
[13] = target: T7, Receptor-interacting serine/threonine-protein kinase 2 (Homo sapiens, UniProt O43353); assay: Inhibition of recombinant human His-tagged RIPK2 (8 to 317 residues) incubated for 1 hr by ADP-Glo assay
[14] = target: Tyrosine-protein kinase ABL1 (Homo sapiens, UniProt P00519); assay: Inhibition of Abl (unknown origin) incubated for 1 hr by ADP-Glo assay
MEF = assay: Anti-neprotic activity in mouse MEF cells assessed as reduction in TNF-induced necroptosis and measured every 1 hr in presence of z-VAD by SYTOX Green dye based fluorescence assay; format: functional, cell-based
Mus musculus [15] = assay: Antiinflammatory Activity in C57BL/6 mouse TNFalpha-induced mouse model of SIRS assessed as reduction in TNF-induced body temperature at 0.124 mg/kg, iv pretreated for 15 mins followed by TNFalpha-stimulation and measured up to 4 days by thermometric method relative to control; format: functional; parameters: scale not given: the % may be the effect or the level left
[16] = target: T3, Receptor-interacting serine/threonine-protein kinase 1; assay: Inhibition of recombinant human GST-tagged RIPK1 (1 to 479 residues) incubated for 4 hrs by ADP-Glo assay
[17] = target: T6, Receptor-interacting serine/threonine-protein kinase 3; assay: Inhibition of human full length N-terminal GST-tagged RIPK3 expressed in baculovirus infected sf9 insect cells assessed as reduction in MBP phosphorylation using MBP as substrate by kinase-Glo luminescence assay
[18] = target: T7, Receptor-interacting serine/threonine-protein kinase 2; assay: Inhibition of human RIPK2 using MBP as substrate by [gamma33-ATP] based radiometric assay
[19] = target: T3, Receptor-interacting serine/threonine-protein kinase 1; assay: Inhibition of human RIPK1 using MBP as substrate by [gamma33-ATP] based radiometric assay
[20] = target: T8, Dual serine/threonine and tyrosine protein kinase (Homo sapiens, UniProt Q6XUX3); assay: Inhibition of human RIPK5 using MBP as substrate by [gamma33-ATP] based radiometric assay
T8 sequence (Q6XUX3 whole entry): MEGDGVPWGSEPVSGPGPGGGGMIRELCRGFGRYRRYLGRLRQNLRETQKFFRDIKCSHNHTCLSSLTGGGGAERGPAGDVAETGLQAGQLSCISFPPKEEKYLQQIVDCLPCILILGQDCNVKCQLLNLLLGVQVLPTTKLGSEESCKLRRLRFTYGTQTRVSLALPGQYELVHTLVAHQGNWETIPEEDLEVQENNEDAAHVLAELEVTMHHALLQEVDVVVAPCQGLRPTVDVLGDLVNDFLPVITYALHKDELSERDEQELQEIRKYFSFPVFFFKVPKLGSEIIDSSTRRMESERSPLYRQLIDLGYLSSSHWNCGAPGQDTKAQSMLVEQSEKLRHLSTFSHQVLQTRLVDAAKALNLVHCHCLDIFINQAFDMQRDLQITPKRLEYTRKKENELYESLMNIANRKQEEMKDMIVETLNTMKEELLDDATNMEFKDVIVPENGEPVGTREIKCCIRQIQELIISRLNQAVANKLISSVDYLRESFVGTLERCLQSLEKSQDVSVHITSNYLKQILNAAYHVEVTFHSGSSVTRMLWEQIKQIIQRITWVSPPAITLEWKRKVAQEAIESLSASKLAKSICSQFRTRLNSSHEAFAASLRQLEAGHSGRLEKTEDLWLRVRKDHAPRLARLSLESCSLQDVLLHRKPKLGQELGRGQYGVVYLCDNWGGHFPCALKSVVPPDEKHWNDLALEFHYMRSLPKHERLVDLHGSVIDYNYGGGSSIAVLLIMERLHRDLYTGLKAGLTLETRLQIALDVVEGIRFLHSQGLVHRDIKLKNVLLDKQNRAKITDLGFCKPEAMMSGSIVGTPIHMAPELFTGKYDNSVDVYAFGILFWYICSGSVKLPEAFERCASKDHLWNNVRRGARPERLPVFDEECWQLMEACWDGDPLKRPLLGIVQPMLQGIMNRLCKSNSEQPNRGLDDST

[21] = target: T6, Receptor-interacting serine/threonine-protein kinase 3; assay: Inhibition of human RIPK3 using MBP as substrate by [gamma33-ATP] based radiometric assay
Fibroblast = assay: Anti-neprotic activity in mouse fibroblasts cells; format: functional, cell-based

T4 sequence (P14902 whole entry): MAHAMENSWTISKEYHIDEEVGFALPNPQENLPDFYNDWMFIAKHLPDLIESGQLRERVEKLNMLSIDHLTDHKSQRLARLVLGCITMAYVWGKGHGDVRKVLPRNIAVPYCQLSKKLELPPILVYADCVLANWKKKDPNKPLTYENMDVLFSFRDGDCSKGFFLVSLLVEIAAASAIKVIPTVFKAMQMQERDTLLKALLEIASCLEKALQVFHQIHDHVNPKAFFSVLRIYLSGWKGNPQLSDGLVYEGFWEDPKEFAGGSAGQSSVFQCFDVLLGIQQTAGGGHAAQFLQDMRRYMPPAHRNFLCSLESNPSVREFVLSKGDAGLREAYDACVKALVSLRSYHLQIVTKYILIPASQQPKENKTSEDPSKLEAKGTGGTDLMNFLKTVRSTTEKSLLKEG
T6 sequence (Q9Y572 whole entry): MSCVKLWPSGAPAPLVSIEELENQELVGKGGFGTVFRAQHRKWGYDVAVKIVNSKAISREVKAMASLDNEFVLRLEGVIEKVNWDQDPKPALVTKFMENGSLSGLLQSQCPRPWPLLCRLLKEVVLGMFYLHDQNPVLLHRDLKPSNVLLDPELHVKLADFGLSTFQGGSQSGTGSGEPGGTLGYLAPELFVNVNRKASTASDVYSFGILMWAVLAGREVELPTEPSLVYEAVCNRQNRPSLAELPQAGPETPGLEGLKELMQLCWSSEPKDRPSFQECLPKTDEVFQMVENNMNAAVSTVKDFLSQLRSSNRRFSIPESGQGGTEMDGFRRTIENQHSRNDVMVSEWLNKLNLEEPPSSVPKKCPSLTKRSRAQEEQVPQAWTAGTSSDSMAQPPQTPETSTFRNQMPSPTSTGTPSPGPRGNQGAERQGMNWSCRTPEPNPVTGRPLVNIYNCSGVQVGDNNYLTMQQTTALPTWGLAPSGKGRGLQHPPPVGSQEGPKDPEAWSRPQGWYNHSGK
T7 sequence (O43353 whole entry, the tested form may be a part): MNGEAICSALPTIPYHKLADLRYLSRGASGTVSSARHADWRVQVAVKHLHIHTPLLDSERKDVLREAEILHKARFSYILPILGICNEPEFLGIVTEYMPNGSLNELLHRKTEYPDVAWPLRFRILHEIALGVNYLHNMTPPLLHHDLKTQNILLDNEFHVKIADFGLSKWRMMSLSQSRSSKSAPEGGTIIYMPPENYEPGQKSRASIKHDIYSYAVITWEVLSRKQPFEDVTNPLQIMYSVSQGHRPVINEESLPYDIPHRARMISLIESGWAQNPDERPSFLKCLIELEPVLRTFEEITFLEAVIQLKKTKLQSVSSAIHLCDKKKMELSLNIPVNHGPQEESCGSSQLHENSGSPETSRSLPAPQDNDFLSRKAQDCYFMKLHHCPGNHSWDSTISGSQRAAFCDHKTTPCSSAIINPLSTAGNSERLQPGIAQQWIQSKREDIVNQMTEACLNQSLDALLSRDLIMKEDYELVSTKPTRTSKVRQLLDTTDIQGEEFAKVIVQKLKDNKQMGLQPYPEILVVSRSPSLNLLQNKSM
Chain of Tyrosine-protein kinase ABL1 (P00519 whole entry): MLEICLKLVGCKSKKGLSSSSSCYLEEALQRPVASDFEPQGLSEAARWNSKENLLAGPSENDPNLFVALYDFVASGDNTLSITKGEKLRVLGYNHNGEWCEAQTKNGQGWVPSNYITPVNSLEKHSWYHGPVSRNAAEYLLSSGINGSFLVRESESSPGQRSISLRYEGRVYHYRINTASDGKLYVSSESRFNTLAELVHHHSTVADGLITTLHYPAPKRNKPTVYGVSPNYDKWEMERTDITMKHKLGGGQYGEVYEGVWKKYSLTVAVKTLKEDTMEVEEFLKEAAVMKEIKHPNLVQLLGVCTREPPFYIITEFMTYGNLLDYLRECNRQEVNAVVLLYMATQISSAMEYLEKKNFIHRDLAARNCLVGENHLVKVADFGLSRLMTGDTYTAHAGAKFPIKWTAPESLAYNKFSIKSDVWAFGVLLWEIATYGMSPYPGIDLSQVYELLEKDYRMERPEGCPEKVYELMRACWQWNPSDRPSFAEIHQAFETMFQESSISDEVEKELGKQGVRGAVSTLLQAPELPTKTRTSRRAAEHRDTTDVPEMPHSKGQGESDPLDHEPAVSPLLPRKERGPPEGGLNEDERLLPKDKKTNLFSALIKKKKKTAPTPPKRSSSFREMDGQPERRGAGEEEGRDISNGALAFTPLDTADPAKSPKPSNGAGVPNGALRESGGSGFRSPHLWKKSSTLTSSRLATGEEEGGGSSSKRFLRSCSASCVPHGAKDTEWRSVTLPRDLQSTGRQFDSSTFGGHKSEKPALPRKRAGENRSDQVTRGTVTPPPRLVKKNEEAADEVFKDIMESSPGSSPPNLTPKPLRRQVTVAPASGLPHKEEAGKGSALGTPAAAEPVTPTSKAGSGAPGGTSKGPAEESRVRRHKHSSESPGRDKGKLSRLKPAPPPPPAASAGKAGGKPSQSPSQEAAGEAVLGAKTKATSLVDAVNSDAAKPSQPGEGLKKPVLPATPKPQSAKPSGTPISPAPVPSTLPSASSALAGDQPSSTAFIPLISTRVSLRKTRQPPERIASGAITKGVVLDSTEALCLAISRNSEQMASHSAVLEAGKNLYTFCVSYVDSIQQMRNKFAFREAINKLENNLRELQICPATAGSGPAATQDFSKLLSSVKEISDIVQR

Cn1c(=O)c2c(nc(S(C)(=O)=O)n2C)n(CC#Cc2cccc(O)c2)c1=O
IC50 (HT-29): 2 nM

C[C@@H](Oc1cc(-c2cnn(C3CCNCC3)c2)cnc1N)c1c(Cl)ccc(F)c1Cl [CRIZOTINIB]
ΔTm [1]: 5.63 °C | ΔTm [2]: 0.75 °C | IC50 (Jurkat): > 40000 nM

Nc1nccnc1C(=O)O[C@@H](C(=O)Nc1ccc(F)cc1)c1ccccc1
ΔTm [2]: -0.15 °C | IC50 (Jurkat): > 40000 nM

CNC(=O)c1ccc2c(c1)ncn2-c1ccc(CC(=O)OC(C)(C)C)cc1
IC50 [3]: 0.3 nM | IC50 [4]: 0.9 nM

CN1C(=O)C(Cc2c[nH]c3ccccc23)NC1=S (centres undefined) [NECROSTATIN]
IC50 [5]: 100000 nM | IC50 [6]: 110 nM

COc1ccc2c(c1)CC[C@H](NC(=O)c1nc3n(n1)[C@H](c1ccccc1)CC3)C(=O)N2C
Activity (Mus musculus [7]): 100% | Ki [8]: 189 nM

Cc1ccc(O)cc1Nc1ccnc2cc(-c3ccccn3)ccc12
IC50 [9]: 73.6 nM

Cn1cc(-c2ccc3c(c2)CCN3C(=O)Cc2cccc(C(F)(F)F)c2)c2c(N)ncnc21
IC50 (L929): 0.4 nM | Activity (Mus musculus [10]): 100%

Cc1cc(-c2cnc(N)c3c(-c4ccc5scnc5c4)csc23)n(C)n1
IC50 [3]: 6.5 nM | IC50 [4]: 8.6 nM

CC(=O)Nc1nc2ccc(-c3cnc(Cl)c(CC(=O)Cc4ccccc4)c3)cc2s1
IC50 [11]: > 1000 nM | Activity (Mus musculus [12]): 90%

Cc1ccc(CCCCN2C(=O)N[C@H](Cc3c[nH]c4c(Cl)cccc34)C2=O)cc1C#Cc1cnc2cccnn12
IC50 [13]: 1190 nM | IC50 [14]: > 1000 nM

Cn1c(=O)c2c(nc(S(C)(=O)=O)n2C)n(C)c1=O
IC50 (HT-29): 390 nM

COc1nccnc1NS(=O)(=O)c1ccc(NC(=O)/C=C/c2ccc([N+](=O)[O-])s2)cc1
IC50 (HT-29): < 200 nM

Cn1cc(-c2ccc3c(c2F)CCN3C(=O)Cc2cccc(C(F)(F)F)n2)c2c(N)ncnc21
IC50 (MEF): 4 nM | IC50 (L929): 0.1 nM | Activity (Mus musculus [15]): 100% | IC50 [16]: 69 nM

O=C1NC(=S)NC1Cc1c[nH]c2ccccc12 (centres undefined)
IC50 [6]: 110 nM

CC(C)(C)c1nc(-c2cccc(NS(=O)(=O)c3c(F)cccc3F)c2F)c(-c2ccnc(N)n2)s1 [DABRAFENIB]
IC50 [17]: 250 nM | IC50 [18]: 77 nM | IC50 [19]: 53200 nM | IC50 [20]: 29400 nM | IC50 [21]: 2 nM

CN(c1ccc(NC(=O)Nc2ccc(OC(F)(F)F)cc2)cc1)c1ccnc(Nc2cccc(S(N)(=O)=O)c2)n1 [GW806742X]
IC50 (Fibroblast): < 50 nM
